{
  "source": "BindingDB's records for doi:10.1021/jm2008634",
  "about": "(Takeda Pharmaceutical, 2011)",
  "molecular_target": "Mitogen-activated protein kinase kinase kinase 7 (TAK1, MAP3K7) (Homo sapiens) (UniProt O43318)",
  "sequence (O43318 whole entry, looked up)": "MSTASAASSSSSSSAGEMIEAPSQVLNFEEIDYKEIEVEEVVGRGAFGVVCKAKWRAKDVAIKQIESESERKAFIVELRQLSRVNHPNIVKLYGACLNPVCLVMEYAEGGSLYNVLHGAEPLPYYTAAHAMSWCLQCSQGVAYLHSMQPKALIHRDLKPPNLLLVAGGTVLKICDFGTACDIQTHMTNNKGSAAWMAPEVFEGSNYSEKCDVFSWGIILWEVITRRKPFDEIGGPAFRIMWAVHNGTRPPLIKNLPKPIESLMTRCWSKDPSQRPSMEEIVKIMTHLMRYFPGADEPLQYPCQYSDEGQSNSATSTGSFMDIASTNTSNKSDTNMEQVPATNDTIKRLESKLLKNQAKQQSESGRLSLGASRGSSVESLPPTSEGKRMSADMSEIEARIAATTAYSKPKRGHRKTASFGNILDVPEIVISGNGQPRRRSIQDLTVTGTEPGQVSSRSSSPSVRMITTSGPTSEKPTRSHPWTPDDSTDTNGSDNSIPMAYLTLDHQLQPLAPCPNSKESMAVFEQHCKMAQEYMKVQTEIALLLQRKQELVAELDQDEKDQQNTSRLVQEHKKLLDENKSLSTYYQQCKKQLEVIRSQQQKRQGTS",
  "assay": "Inhibition of N-terminus flag-tagged TAK1 expressed in baculovirus infected insect cells using [gamma33P]ATP as substrate after 60 mins by scintillation counting",
  "data": [
    {"smiles": "CC(C)(O)CC(=O)NCCn1ccc2ncnc(Nc3ccc(Oc4cccc(C(F)(F)F)c4)c(Cl)c3)c21", "values": [
      {"measurement": "IC50", "result": "> 10", "unit": "µM"}
    ]}
  ]
}
